From US20250275953A1, “VODOBATINIB FOR REDUCING PROGRESSION OF PARKINSON'S DISEASE” (Sun Pharma Advanced Research Company Ltd., priority 2022, published 2025)
Entries after “also recorded” stand apart in the source; their conditions may differ.

Experiments:
[1] = Exposure on transition from capsule to powder, phase 2 study in early PD; type: in vivo, human; conditions: on average
Method: A phase 2, randomized, double-blind, placebo-controlled study of vodobatinib in approximately 504 subjects with early Parkinson's disease is ongoing. The subjects are being administered a low dose (96 mg capsule or 192 mg powder of vodobatinib) or high dose (192 mg capsule or 384 mg powder of vodobatinib). The subjects are initially administered the capsule and then transitioned to the powder. […] The objective of the study is to determine if vodobatinib reduces the rate of progression of early-stage Parkinson's disease over 40 weeks, as defined by the sum of the MDS-UPDRS (Movement Disorder Society-Unified Parkinson's Disease Rating Scale) Parts 2 and 3 scores.

[2] = Safety and tolerability, Parkinson's disease patients (NCT02970019); type: in vivo, human; conditions: for Possibly related AEs by subject: daily for 14 days
Source text: Of these, 44 subjects completed the study. An additional 10 subjects were enrolled in the open label part of the study, of these, one subject was discontinued due to an AE of vomiting.
Safety population was comprised of 48 subjects (not including those in the open label cohorts) and PK population was comprised of 36 subjects from double blind part and 10 subjects from open label part of the study. No subjects were discontinued from the study due to protocol deviation.
(§1) Study NCT02970019 was a multi-center safety and tolerability study of vodobatinib in 60 subjects with Parkinson's Disease (diagnosed with PD according to the Brain Bank criteria of the United Kingdom Parkinson's Disease Society) who were randomized to receive placebo or various daily doses of vodobatinib for 14 days in a parallel assignment design with quadruple masking (participant, care provider, investigator, and outcomes assessor.) In study NCT02970019, consecutive cohorts of up to eight subjects received once-daily doses of 6, 12, 18, 24, 48, 96, 192, or 384 mg of study drug for 14 days, with six subjects in each cohort on vodobatinib and two subjects in each cohort on placebo. An alternating panel design was used such that subjects in the 6 and 18 mg cohorts were the same, and subjects in the 12 and 24 mg cohorts were the same, thus yielding 48 total individuals enrolled in the eight cohorts. There was a wash-out period of 14 days between each were studied in sequential ascending dose cohorts. In parallel to the double-blind cohorts, up to four subjects per dose cohort were enrolled in an open-label study of vodobatinib to receive 24, 48 or 96 mg once-daily doses of for 14 days. These subjects underwent lumbar puncture to collect CSF on Day 1, and 2-3 h after the last morning dose on Day 14. PK blood draws (for both double-blind and open label) were collected at pre-dose (˜30 min) and at 0.5, 1, 2, 4, 8, 12 and 24 h post-dose on Days 1 and 14.

Arg = Arg (Homo sapiens, UniProt P42684); experiment: Biochemical kinase assay
Sequence of Arg (P42684 whole entry): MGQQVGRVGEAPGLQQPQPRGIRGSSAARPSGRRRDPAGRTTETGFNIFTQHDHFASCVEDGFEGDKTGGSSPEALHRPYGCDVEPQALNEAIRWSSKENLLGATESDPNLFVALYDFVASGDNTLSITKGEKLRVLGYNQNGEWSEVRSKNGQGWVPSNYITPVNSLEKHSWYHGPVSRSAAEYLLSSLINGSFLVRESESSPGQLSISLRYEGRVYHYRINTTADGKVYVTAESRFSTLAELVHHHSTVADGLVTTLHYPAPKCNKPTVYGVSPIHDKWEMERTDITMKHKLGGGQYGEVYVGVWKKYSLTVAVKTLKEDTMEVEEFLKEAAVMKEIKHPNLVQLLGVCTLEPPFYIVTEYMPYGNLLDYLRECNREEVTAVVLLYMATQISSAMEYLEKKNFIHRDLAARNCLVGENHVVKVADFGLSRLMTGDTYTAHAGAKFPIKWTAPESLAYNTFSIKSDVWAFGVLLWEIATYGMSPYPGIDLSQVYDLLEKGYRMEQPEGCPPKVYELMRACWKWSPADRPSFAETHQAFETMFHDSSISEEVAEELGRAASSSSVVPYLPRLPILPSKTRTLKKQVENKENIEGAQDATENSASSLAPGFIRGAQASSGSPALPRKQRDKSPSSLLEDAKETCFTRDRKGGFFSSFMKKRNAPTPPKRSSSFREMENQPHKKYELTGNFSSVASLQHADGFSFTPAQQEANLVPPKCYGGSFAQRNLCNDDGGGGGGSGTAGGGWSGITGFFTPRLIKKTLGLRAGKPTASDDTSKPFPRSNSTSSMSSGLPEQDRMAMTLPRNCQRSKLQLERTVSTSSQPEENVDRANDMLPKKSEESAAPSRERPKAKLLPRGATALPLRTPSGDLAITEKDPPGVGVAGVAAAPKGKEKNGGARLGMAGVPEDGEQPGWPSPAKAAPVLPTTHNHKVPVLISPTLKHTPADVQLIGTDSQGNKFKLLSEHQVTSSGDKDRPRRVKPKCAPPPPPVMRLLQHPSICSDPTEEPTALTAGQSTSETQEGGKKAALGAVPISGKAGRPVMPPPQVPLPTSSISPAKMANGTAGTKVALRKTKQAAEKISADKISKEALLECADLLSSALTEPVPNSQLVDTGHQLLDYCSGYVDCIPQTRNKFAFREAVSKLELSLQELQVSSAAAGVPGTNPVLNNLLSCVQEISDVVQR
Source text: (§2) Conventional biochemical kinase assays, using radioactivity and fluorescence as readouts, were used to derive half maximal-inhibitory concentrations (IC50) values.

[3] = CSF concentration, Parkinson's disease patients, open label part, Day 14; type: in vivo, human; conditions: for mean CSF level: 2-3 h post dose, Day 14, PD patients; for Concentration in CSF Mean (SD): Day 14, 2-3 h post dose, PD patients open label; for Concentration in CSF Geo. Mean / Concentration in CSF Median: Day 14, PD patients open label
Method: A single CSF sample was collected at either 2 h or 3 h following the dose on Day 14.
as §1
Vodobatinib levels in plasma and CSF were determined using a fully validated LC-MS/MS assay with lower limits of quantitation (LLOQ) of 2.5 ng/mL and 0.05 ng/mL, respectively. PK analyses were performed using standard non-compartmental analysis with Phoenix® WinNonlin® software Version 6.4 to estimate the PK parameters Cmax, Tmax, AUCtau and Css. Descriptive statistics were used to characterize vodobatinib concentrations and PK parameters in plasma and CSF. Statistical calculations were performed with SAS software (Version 9.4, SAS Institute, Cary, North Carolina, USA).

Abl (T315I) = Abl (T315I) (Homo sapiens, UniProt P00519, T315I); experiment: Biochemical kinase assay, gatekeeper mutant Abl
Source text: as §2

SMILES: Cc1ccc(C(=O)NNC(=O)c2c(C)cccc2Cl)cc1C#Cc1cnc2ccccc2c1 [N′-(2-chloro-6-methylbenzoyl)-4-methyl-3-[2-(3-quinolyl)ethynyl]-benzohydrazide]
- increase in exposure, capsule to powder (96 to 192 mg or 192 to 384 mg) [1]: approximately 1.4 fold
- n/N (number of AEs per number of subjects in dose group) ([2]; 6 mg DB): 6 mg DB (5/8)
- Possibly related AEs by subject ([2]; 6 mg DB, listed as Vodobatinib): Increased appetite, feet & ankle weakness, infraorbital puffiness,; also recorded: increased tremor and dry eyes
- n/N (number of AEs per number of subjects in dose group) ([2]; 12 mg DB): 12 mg DB (3/8)
- Possibly related AEs by subject ([2]; 12 mg DB, listed as Vodobatinib): Light-headedness; also recorded: Decreased balance & decreased gait
- n/N (number of AEs per number of subjects in dose group) ([2]; 18 mg DB): 18 mg DB (3/6)
- Possibly related AEs by subject ([2]; 18 mg DB): New onset atrial fibrillation and orthostasis (moderate severity)
- n/N (number of AEs per number of subjects in dose group) ([2]; 24 mg DB): 24 mg DB (1/8)
- Possibly related AEs by subject ([2]; 24 mg DB): None
- n/N (number of AEs per number of subjects in dose group) ([2]; 24 mg OL): 24 mg OL (3/3)
- Possibly related AEs by subject ([2]; 24 mg OL, listed as Vodobatinib): Vertigo, headache, nausea, weakness, vomiting (all moderate
- n/N (number of AEs per number of subjects in dose group) ([2]; 48 mg DB): 48 mg DB (2/8)
- Possibly related AEs by subject ([2]; 48 mg DB): None
- n/N (number of AEs per number of subjects in dose group) ([2]; 96 mg DB): 96 mg DB (2/8)
- Possibly related AEs by subject ([2]; 96 mg DB, listed as Vodobatinib): Abdominal pain and soft stool; also recorded: Brain fog, worsening of right lower leg cramps
- n/N (number of AEs per number of subjects in dose group) ([2]; 96 mg OL): 96 mg OL (2/4)
- Possibly related AEs by subject ([2]; 96 mg OL, listed as Vodobatinib): Dry eyes; also recorded: Worsening of muscle cramps (“probably related”)
- n/N (number of AEs per number of subjects in dose group) ([2]; 192 mg DB): 192 mg DB (3/8)
- Possibly related AEs by subject ([2]; 192 mg DB, listed as Vodobatinib): Mild rash, epigastric pain; also recorded: Somnolence, worsening of left upper extremities resting tremor; also recorded: Erythematous, pruritic rash on torso and head
- subjects discontinued due to AEs ([2]; 192 mg, 384 mg (double-blind), 24 mg (open-label)): Three
- changes in laboratory values ([2]; PD patients): no clinically significant drug related changes
- changes in the QT interval ([2]; PD patients): no drug-related changes
- overall safety and tolerability ([2]; PD patients): acceptable safety and tolerability
- changes in laboratory values ([2]; PD patients, listed as vodobatinib): no clinically significant drug-related changes
- number of TEAEs, overall ([2]; PD subjects, 14 days): 63
- subjects reporting TEAEs, overall ([2]; PD subjects, 14 days): 32
- Most common treatment related TEAEs (>1 subject) ([2]; double-blind part): rash, abdominal pain and tremor
- number of TEAEs ([2]; double-blind part): 42
- subjects reporting TEAEs ([2]; double-blind part): Twenty-three
- subjects reporting TEAEs ([2]; double-blind, 6 mg cohort): 3
- subjects reporting TEAEs ([2]; double-blind, 12 mg cohort): 3
- subjects reporting TEAEs ([2]; double-blind, 18 mg cohort): 2
- subjects reporting TEAEs ([2]; double-blind, 24 mg cohort): one
- subjects reporting TEAEs ([2]; double-blind, 48 mg cohort): one
- subjects reporting TEAEs ([2]; double-blind, 96 mg cohort): 2
- subjects reporting TEAEs ([2]; double-blind, 192 mg cohort): 3
- subjects reporting TEAEs ([2]; double-blind, 384 mg cohort): 5
- most severe TEAE ([2]; one subject, 48 mg group, treatment unrelated, resolved): asthenia of grade 3 severity
- number of TEAEs ([2]; open-label part): 21
- subjects reporting TEAEs ([2]; open-label part): Nine
- number of TEAEs ([2]; open-label, 24 mg cohort (3 subjects)): 10
- number of TEAEs ([2]; open-label, 48 mg cohort (3 subjects)): 6
- number of TEAEs ([2]; open-label, 96 mg cohort (3 subjects)): 5
- number of treatment related TEAEs ([2]; overall): 35
- subjects reporting treatment related TEAEs ([2]; overall): Twenty-one
- IC50 (Arg): 0.8 nM
- mean CSF level ([3]; 24 mg): 1.5 nM
- Concentration in CSF Mean (SD) ([3]; 24 mg): 0.6550 (0.2447) ng/mL
- Concentration in CSF Mean (SD) ([3]; 24 mg, listed as vodobatinib): 0.66 ng/mL
- Concentration in CSF Geo. Mean ([3]; 24 mg): 0.6317 ng/mL
- Concentration in CSF Median ([3]; 24 mg): 0.6550 ng/mL
- mean CSF level ([3]; 48 mg): 1.5 nM
- Concentration in CSF Mean (SD) ([3]; 48 mg): 0.6683 (0.744) ng/mL
- Concentration in CSF Mean (SD) ([3]; 48 mg, listed as vodobatinib): 0.67 ng/mL
- Concentration in CSF Geo. Mean ([3]; 48 mg): 0.8868 ng/mL
- Concentration in CSF Median ([3]; 48 mg): 0.5350 ng/mL
- mean CSF level ([3]; 96 mg): 2.4 nM
- Concentration in CSF Mean (SD) ([3]; 96 mg): 1.1193 (0.4533) ng/mL
- Concentration in CSF Mean (SD) ([3]; 96 mg, listed as vodobatinib): 1.1 ng/mL
- Concentration in CSF Geo. Mean ([3]; 96 mg): 1.0482 ng/mL
- Concentration in CSF Median ([3]; 96 mg): 1.0850 ng/mL
- IC50 (Abl (T315I)): 8 nM
